The record followed here is PMC11822212, “High-throughput screening identifies Aurora kinase B as a critical therapeutic target for Merkel cell carcinoma” (Nature Communications, 2025).

Where a name gives a salt, the structure may show the parent alone. Read-outs that look alike come from different tables or passages of the source.

One test has as its system MCC13 cells (VN-MCC). Briefly: qHTS cell viability (CellTiter-Glo, 72 h; primary and follow-up small molecule screen). Format: cell-based, human. (In general: In qHTS, concentration-response curves come from the screen itself.)
Another test deals with MCC26 cells (VN-MCC). Described as above. Format: cell-based, human.
A further test has as its system UISO cells (VN-MCC). The description is as above. It is filed as cell-based, human.
The test system of the next test is WAGA cells (VP-MCC). The description is as above. It is filed as cell-based, human.
The next test concerns MKL-1 cells (VP-MCC). The test is described as above. Format: cell-based, human.
A further test deals with MKL-2 cells (VP-MCC). The description is as above. It is filed as cell-based, human.
A further test deals with HACAT cells. The test can be described thus: qHTS cell viability (CellTiter-Glo, 72 h; primary screen), control cell line. Format: cell-based, human.
The subject of another test is HEK293T cells. The test is described as above. It is filed as cell-based, human.
The next test deals with NIH-3T3 cells. Described as above. Format: cell-based, mouse.
The subject of another test is CRL-7250 cells. The description is as above. It is filed as cell-based.
Test [1] has as its system MCC cell lines (WAGA, MKL-1, MKL-2, MCC13, MCC26, UISO). Briefly: qHTS cell viability, all six MCC cell lines as a group (mean AUC, MCC.avg). Format: cell-based, human.
Test [2] deals with VP-MCC cell lines (WAGA, MKL-1, MKL-2). Briefly: qHTS cell viability, VP-MCC cell lines as a group (mean AUC, VP.MCC.avg). Format: cell-based, human.
Test [3] deals with VN-MCC cell lines (MCC13, MCC26, UISO). Briefly: qHTS cell viability, VN-MCC cell lines as a group (mean AUC, VN.MCC.avg). It is filed as cell-based, human.
Test [4] concerns control cell lines (HACAT, HEK293T, CRL-7250, NIH-3T3). Briefly: qHTS cell viability, control cell lines as a group (mean AUC, Control.avg). It is filed as cell-based.
The subject of test [5] is six MCC cell lines and four control cell lines. Briefly: qHTS cell viability, all 10 cell lines screened. It is filed as cell-based.
Where [6] appears, read: NPC library, qHTS dose-response AUC, MCC13.
[7] abbreviates: NPC library, qHTS dose-response AUC, MCC26.
Where [8] appears, read: NPC library, qHTS dose-response AUC, UISO.
Where [9] appears, read: NPC library, qHTS dose-response AUC, WAGA.
Where [10] appears, read: NPC library, qHTS dose-response AUC, MKL1.
The mark [11] stands for this setting: NPC library, qHTS dose-response AUC, MKL2.
Setting [12] is: NPC library, qHTS dose-response AUC, HACAT control.
[13] abbreviates: NPC library, qHTS dose-response AUC, HEK293T control.
Setting [14] is: NPC library, qHTS dose-response AUC, NIH3T3 control.
[15] abbreviates: NPC library, qHTS dose-response AUC, CRL7250 control.
Setting [16] is: NPC library, mean AUC of six MCC cell lines.
The mark [17] stands for this setting: NPC library, mean AUC of VP-MCC cell lines.
[18] abbreviates: NPC library, therapeutic window: Control avg AUC minus VP-MCC avg AUC.
Setting [19] is: NPC library, mean AUC of VN-MCC cell lines.
Setting [20] is: NPC library, therapeutic window: Control avg AUC minus VN-MCC avg AUC.
Where [21] appears, read: NPC library, mean AUC of control cell lines.
[22] abbreviates: NPC library, therapeutic window: Control avg AUC minus MCC avg AUC.

`CCCN(CCC)CCc1c[nH]c2ccccc12.Cl` [N,N-Dipropyltryptamine hydrochloride] showed an MCC13_AUC in the test on MCC13 cells (VN-MCC) of 455.096. In the test with MCC26 cells (VN-MCC), this compound displayed an MCC26_AUC of 415.779. The UISO_AUC with UISO cells (VN-MCC) stood at 424.523. The WAGA_AUC in the test on WAGA cells (VP-MCC) came out at 434.773. The MKL1_AUC in the test with MKL-1 cells (VP-MCC) is recorded as 391.099. Also, the MKL2_AUC with MKL-2 cells (VP-MCC) came to 402.2. The HACAT_AUC with HACAT cells amounted to 490.19. Besides, the HEK293T_AUC with HEK293T cells amounted to 447.306. The compound also registered an NIH3T3_AUC with NIH-3T3 cells of 481.316. In the test on CRL-7250 cells, this compound had a CRL7250_AUC of 497.853. Moreover, the MCC_Avg_AUC in test [1] is 420.579. In [2], this compound yielded a Control-VP-MCC of 69.8085 and a VP-MCC_Avg_AUC of 409.358. For the same compound, in test [3], the Control-VN-MCC is on record as 47.3665 and the VN-MCC_Avg_AUC is reported as 431.8. For the same compound, the Control_Avg_AUC in test [4] came out at 479.166. The Control-MCC in [5] worked out at 58.5875.
On to `CNCc1ccccc1.Cl` [N-Methylbenzylamine hydrochloride], for which the MCC13_AUC with MCC13 cells (VN-MCC) (setting [6]) came out at 438.819. The MCC26_AUC in the test on MCC26 cells (VN-MCC) (setting [7]) is on record as 480.435. This compound also came in with a UISO_AUC in the test with UISO cells (VN-MCC) (setting [8]) of 548.944. Also, the WAGA_AUC with WAGA cells (VP-MCC) (setting [9]) amounted to 372.649. In the test with MKL-1 cells (VP-MCC) (setting [10]), this compound registered an MKL1_AUC of 390.814. This compound yielded an MKL2_AUC in the test with MKL-2 cells (VP-MCC) (setting [11]) of 343.012. In addition, the HACAT_AUC in the test with HACAT cells (setting [12]) is listed as 476.463. This compound registered an HEK293T_AUC in the test with HEK293T cells (setting [13]) of 408.972. The NIH3T3_AUC with NIH-3T3 cells (setting [14]) was found to be 497.435. Moreover, the CRL7250_AUC with CRL-7250 cells (setting [15]) is listed as 502.537. In [1] (setting [16]), this compound displayed an MCC_Avg_AUC of 429.112. Besides, the VP-MCC_Avg_AUC in test [2] (setting [17]) worked out at 368.825. Moreover, in [2] (setting [18]), the Control-VP-MCC was found to be 102.527. The compound also yielded a VN-MCC_Avg_AUC in [3] (setting [19]) of 489.399. In test [3] (setting [20]), the Control-VN-MCC was -18.0472. Besides, the Control_Avg_AUC in [4] (setting [21]) is on record as 471.352. In [5] (setting [22]), the Control-MCC was determined as 42.2399.
For `Cl.Oc1ccc2c3c1O[C@H]1[C@@H](O)C=C[C@H]4[C@@H](C2)NCC[C@@]341` [N-Normorphine hydrochloride], the MCC13_AUC in the test with MCC13 cells (VN-MCC) came out at 466.371. Further, the MCC26_AUC with MCC26 cells (VN-MCC) came out at 408.273. Further, the UISO_AUC in the test on UISO cells (VN-MCC) is 440.259. This compound came in with a WAGA_AUC in the test on WAGA cells (VP-MCC) of 412.634. Moreover, the MKL1_AUC with MKL-1 cells (VP-MCC) is listed as 418.832. In the test with MKL-2 cells (VP-MCC), this compound yielded an MKL2_AUC of 420.551. This compound came in with an HACAT_AUC in the test with HACAT cells of 477.868. Moreover, in the test with HEK293T cells, the HEK293T_AUC worked out at 480.826. The NIH3T3_AUC in the test on NIH-3T3 cells is reported as 490.376. The compound further yielded a CRL7250_AUC in the test with CRL-7250 cells of 485.195. The compound also had an MCC_Avg_AUC in test [1] of 427.82. Further, in test [2], the Control-VP-MCC was 66.2273 and the VP-MCC_Avg_AUC is 417.339. Besides, in test [3], the Control-VN-MCC is reported as 45.2651 and the VN-MCC_Avg_AUC was found to be 438.301. This compound also yielded a Control_Avg_AUC in test [4] of 483.566. In addition, in test [5], the Control-MCC is reported as 55.7462.
With `CNS(=O)(=O)CCc1ccc2[nH]cc(C3CCN(C)CC3)c2c1` [Naratriptan hydrochloride], the MCC13_AUC in the test with MCC13 cells (VN-MCC) (setting [6]) worked out at 448.681. Moreover, the MCC26_AUC in the test with MCC26 cells (VN-MCC) (setting [7]) is given as 402.936. In the test on UISO cells (VN-MCC) (setting [8]), this compound yielded a UISO_AUC of 436.144. In the test with WAGA cells (VP-MCC) (setting [9]), this compound returned a WAGA_AUC of 412.133. The compound further displayed an MKL1_AUC with MKL-1 cells (VP-MCC) (setting [10]) of 385.118. This compound also came in with an MKL2_AUC with MKL-2 cells (VP-MCC) (setting [11]) of 428.785. The compound also showed an HACAT_AUC in the test with HACAT cells (setting [12]) of 491.601. This compound returned an HEK293T_AUC in the test with HEK293T cells (setting [13]) of 455.258. The same compound registered an NIH3T3_AUC in the test with NIH-3T3 cells (setting [14]) of 449.036. This compound gave a CRL7250_AUC with CRL-7250 cells (setting [15]) of 454.782. In addition, in test [1] (setting [16]), the MCC_Avg_AUC is listed as 418.966. In test [2] (setting [17]), the VP-MCC_Avg_AUC came to 408.679. In addition, the Control-VP-MCC in test [2] (setting [18]) was found to be 53.9902. This compound also yielded a VN-MCC_Avg_AUC in test [3] (setting [19]) of 429.254. The same compound displayed a Control-VN-MCC in test [3] (setting [20]) of 33.4153. In test [4] (setting [21]), this compound registered a Control_Avg_AUC of 462.669. Moreover, the Control-MCC in [5] (setting [22]) is 43.7027.
